# Starred links: 1 amine or outer side, 2 acyl side, 3 side chain; linkers in the order of their positions; H or OH if unused. Positions of bridges follow the written chain, without caps; N, C: chain ends. Non-standard residues stand in square brackets, D forms with d. Residues, ends and D or L forms follow the SMILES beside them. Hexanoyl(3S-OH,4R-NH2,5-Me) = CC(C)[C@@H](N[*:1])[C@@H](O)CC(=O)[*:2]; NMeY = CN[C@@H](Cc1ccc(O)cc1)C(=O)O; dNMeL = CN[C@H](CC(C)C)C(=O)O; Hiv = CC(C)[C@H](O)C(=O)O; Lac = C[C@H](O)C(=O)O
# Assays:
# HELA = test: SRB colorimetric cell growth inhibition assay, HELA
# Protocol: (§1) This form of assay employs 96 well cell culture microplates of […] diameter (Faircloth, 1988; Mosmann, 1983). Most of the cell lines are obtained from American Type Culture Collection (ATCC) derived from different human cancer types.
# (§2) Cells are maintained in RPMI 1640 10% FBS, supplemented with 0.1 g/l penicillin and 0.1 g/l streptomycin sulfate and then incubated at 37° C., 5% CO2 and 98% humidity. For the experiments, cells were harvested from subconfluent cultures using trypsin and resuspended in fresh medium before plating.
# (§3) Cells are seeded in 96 well microtiter plates, at 5×10^3 cells per well in aliquots of 195 μl medium, and they are allowed to attach to the plate surface by growing in drug free medium for 18 hours. Afterward, samples are added in aliquots of 5 μl in a ranging from 10 to 10-8 μg/ml, dissolved in DMSO/EtOH/PBS (0.5:0.5:99). After 48 hours exposure, the antitumor effect are measured by the SRB methodology: cells are fixed by adding 50 μl of cold 50% (wt/vol) trichloroacetic acid (TCA) and incubated for 60 minutes at 4° C.
# (§4) Plates are washed with deionised water and dried. One hundred μl of SRB solution (0.4% wt/vol in 1% acetic acid) is added to each microtiter well and incubated for 10 minutes at room temperature. Unbound SRB is removed by washing with 1% acetic acid. Plates are air dried and bound stain is solubilized with Tris buffer. Optical densities are read on a automated spectrophotometric plate reader at a single wavelength of 490 nm.
# (§5) The values for mean+/−SD of data from triplicate wells are calculated.
# (§6) Some parameters for cellular responses can be calculated: GI=growth inhibition, TGI=total growth inhibition (cytostatic effect) and LC=cell killing (cytotoxic effect).
# SK-BR3 = test: SRB colorimetric cell growth inhibition assay, SK-BR3
# Protocol: as §1, §2, §3, §4, §5, §6
# IGROV = test: SRB colorimetric cell growth inhibition assay, IGROV
# Protocol: as §1, §2, §3, §4, §5, §6
# IGROV-ET = test: SRB colorimetric cell growth inhibition assay, IGROV-ET
# Protocol: as §1, §2, §3, §4, §5, §6
# SK-MEL-28 = test: SRB colorimetric cell growth inhibition assay, SK-MEL-28
# Protocol: as §1, §2, §3, §4, §5, §6
# PANC1 = test: SRB colorimetric cell growth inhibition assay, PANC1
# Protocol: as §1, §2, §3, §4, §5, §6
# A549 = test: SRB colorimetric cell growth inhibition assay, A549
# Protocol: as §1, §2, §3, §4, §5, §6
# HT29 = test: SRB colorimetric cell growth inhibition assay, HT29
# Protocol: as §1, §2, §3, §4, §5, §6
# K562 = test: SRB colorimetric cell growth inhibition assay, K562
# Protocol: as §1, §2, §3, §4, §5, §6
# LOVO-DOX = test: SRB colorimetric cell growth inhibition assay, LOVO-DOX
# Protocol: as §1, §2, §3, §4, §5, §6
# DU145 = test: SRB colorimetric cell growth inhibition assay, DU145
# Protocol: as §1, §2, §3, §4, §5, §6
# LN-caP = test: SRB colorimetric cell growth inhibition assay, LN-caP
# Protocol: as §1, §2, §3, §4, §5, §6
# LOVO = test: SRB colorimetric cell growth inhibition assay, LOVO
# Protocol: as §1, §2, §3, §4, §5, §6
# HELA-APL = test: SRB colorimetric cell growth inhibition assay, HELA-APL
# Protocol: as §1, §2, §3, §4, §5, §6
# [1] = Homo sapiens, 48 h, read-out: LC50
smiles,measurement,setting,value
"COc1ccc(C[C@H]2C(=O)OC[C@H](NC(=O)[C@@H](CC(C)C)N(C)C(=O)[C@@H]3CCCN3C(=O)[C@H](C)O)C(=O)N[C@H](C(C)C)[C@@H](O)CC(=O)O[C@@H](C(C)C)C(=O)N[C@@H](CC(C)C)C(=O)N3CCC[C@H]3C(=O)N2C)cc1 [Compound 62, [N-Ser^6]-Tamandarin B] (H-[Lac]P[dNMeL]S[Hexanoyl(3S-OH,4R-NH2,5-Me)][Hiv]LP[NMeY](Me); ester 4-C)",TGI,"HELA; HELA cells, total growth inhibition, SRB, 48 hours exposure",2.61E−08 Molar
same,GI50,"HELA; Homo sapiens, HeLa, 48 h",3.76 nM
same,CC50,"HELA; Homo sapiens, HeLa, 48 h, read-out: LC50",368 nM
same,GI50,"SK-BR3; Homo sapiens, SK-BR-3, 48 h",3.74 nM
same,CC50,"SK-BR3; Homo sapiens, SK-BR-3, 48 h, read-out: LC50",≥ 9730 nM
same,TGI,"SK-BR3; SK-BR3 cells, total growth inhibition, SRB, 48 hours exposure",4.05E−08 Molar
same,GI50,"IGROV; Homo sapiens, IGROV, 48 h",1990 nM
same,CC50,"IGROV; Homo sapiens, IGROV, 48 h, read-out: LC50",9840 nM
same,TGI,"IGROV; IGROV cells, total growth inhibition, SRB, 48 hours exposure",5.29E−06 Molar
same,GI50,"IGROV-ET; Homo sapiens, 48 h",456 nM
same,CC50,IGROV-ET; [1],6950 nM
same,TGI,"IGROV-ET; IGROV-ET cells, total growth inhibition, SRB, 48 hours exposure",1.90E−06 Molar
same,GI50,"SK-MEL-28; Homo sapiens, SK-MEL-28, 48 h",16.6 nM
same,CC50,"SK-MEL-28; Homo sapiens, SK-MEL-28, 48 h, read-out: LC50",675 nM
same,TGI,"SK-MEL-28; SK-MEL-28 cells, total growth inhibition, SRB, 48 hours exposure",8.24E−08 Molar
same,GI50,"PANC1; Homo sapiens, PANC-1, 48 h",34.9 nM
same,CC50,"PANC1; Homo sapiens, PANC-1, 48 h, read-out: LC50",≥ 9730 nM
same,TGI,"PANC1; PANC1 cells, total growth inhibition, SRB, 48 hours exposure",8.82E−07 Molar
same,TGI,"A549; A549 cells, total growth inhibition, SRB, 48 hours exposure",3.51E−07 Molar
same,GI50,"A549; Homo sapiens, A549, 48 h",51.5 nM
same,CC50,"A549; Homo sapiens, A549, 48 h, read-out: LC50",2900 nM
same,TGI,"HT29; HT29 cells, total growth inhibition, SRB, 48 hours exposure",2.03E−07 Molar
same,GI50,"HT29; Homo sapiens, HT-29, 48 h",23.7 nM
same,CC50,"HT29; Homo sapiens, HT-29, 48 h, read-out: LC50",≥ 9730 nM
same,GI50,"K562; Homo sapiens, K562, 48 h",78 nM
same,CC50,"K562; Homo sapiens, K562, 48 h, read-out: LC50",2390 nM
same,TGI,"K562; K562 cells, total growth inhibition, SRB, 48 hours exposure",3.03E−07 Molar
same,GI50,"LOVO-DOX; Homo sapiens, 48 h",2390 nM
same,CC50,LOVO-DOX; [1],≥ 9730 nM
same,TGI,"LOVO-DOX; LOVO-DOX cells, total growth inhibition, SRB, 48 hours exposure",8.40E−06 Molar
same,TGI,"DU145; DU145 cells, total growth inhibition, SRB, 48 hours exposure",2.49E−08 Molar
same,GI50,"DU145; Homo sapiens, DU-145, 48 h",6.79 nM
same,CC50,"DU145; Homo sapiens, DU-145, 48 h, read-out: LC50",82.6 nM
same,GI50,"LN-caP; Homo sapiens, LNCaP, 48 h",2.71 nM
same,CC50,"LN-caP; Homo sapiens, LNCaP, 48 h, read-out: LC50",58.4 nM
same,TGI,"LN-caP; LN-caP cells, total growth inhibition, SRB, 48 hours exposure",7.24E−09 Molar
same,GI50,"LOVO; Homo sapiens, LoVo, 48 h",38.9 nM
same,CC50,"LOVO; Homo sapiens, LoVo, 48 h, read-out: LC50",3660 nM
same,TGI,"LOVO; LOVO cells, total growth inhibition, SRB, 48 hours exposure",2.31E−07 Molar
same,TGI,"HELA-APL; HELA-APL cells, total growth inhibition, SRB, 48 hours exposure",5.41E−06 Molar
same,GI50,"HELA-APL; Homo sapiens, 48 h",411 nM
same,CC50,HELA-APL; [1],≥ 9730 nM

# Source: patent US20070149446A1, “Tamandarin analogs and fragments thereof and methods of making and using” (The Trustees of the University of Pennsylvania Center for …, priority 2003, published 2007)
